In ChEMBL document CHEMBL1138971, “CA224, a non-planar analogue of fascaplysin, inhibits Cdk4 but not Cdk2 and arrests cells at G0/G1 inhibiting pRB phosphorylation” (Bioorg Med Chem Lett, 2006):
Activity calls are given as the source filed them. No cut-off for these calls is given here. Starred links: 1 amine or outer side, 2 acyl side, 3 side chain; linkers in the order of their positions; H or OH if unused. Positions of bridges follow the written chain, without caps; N, C: chain ends. Non-standard residues stand in square brackets, D forms with d. Residues, ends and D or L forms follow the SMILES beside them. Chains are numbered I, II in the order given. Actinocin(1to9) = Cc1c2oc3c(C)ccc(C(=O)[*:2])c3nc-2c(C(=O)[*:1])c(N)c1=O; NMeV = CN[C@H](C(=O)O)C(C)C; Sar = CNCC(=O)O

Legend:
[1] = target: Cyclin-dependent kinase 2/cyclin A (Homo sapiens, UniProt P24941); assay: Inhibition of Cdk2/Cyclin A; assay type: protein-complex assay
PC-3 = assay: Antiproliferative activity against PC3 cells; assay type: functional, cell-based; details: Homo sapiens
LS174T = assay: Antiproliferative activity against LS174T cells; assay type: functional, cell-based; details: Homo sapiens
A549 = assay: Antiproliferative activity against A549 cells; assay type: functional, cell-based; details: Homo sapiens
[2] = target: Cyclin-dependent kinase 4/cyclin D1 (Homo sapiens, UniProt P11802); assay: Inhibition of Cdk4/Cyclin D1; assay type: protein-complex assay
Calu-1 [3] = assay: Antiproliferative activity against Calu1 cells; assay type: functional, cell-based; details: Homo sapiens
Calf thymus DNA [4] = assay: Ability to displace ethidium bromide from DNA; assay type: nucleic-acid assay
[5] = target: Cyclin-dependent kinase 4 (Homo sapiens) (UniProt P11802); assay: Inhibition of Cdk4-mediated phosphorylation of pRB in Calu1 cells at ser 780 residue at 6.2 uM after 24 hrs by Western blot analysis; assay type: functional, cell-based; details: Calu-1
Calu-1 [6] = assay: Cell cycle arrest in serum-starved Calu1 cells by accumulation at G2/M phase after 24 hrs by FACS analysis; assay type: functional, Homo sapiens
[7] = target: T1, DNA topoisomerase 1 (Homo sapiens) (UniProt P11387); assay: Inhibition of DNA relaxation catalysed by topoisomerase1 at 10 uM; assay type: functional
T1 sequence (whole entry): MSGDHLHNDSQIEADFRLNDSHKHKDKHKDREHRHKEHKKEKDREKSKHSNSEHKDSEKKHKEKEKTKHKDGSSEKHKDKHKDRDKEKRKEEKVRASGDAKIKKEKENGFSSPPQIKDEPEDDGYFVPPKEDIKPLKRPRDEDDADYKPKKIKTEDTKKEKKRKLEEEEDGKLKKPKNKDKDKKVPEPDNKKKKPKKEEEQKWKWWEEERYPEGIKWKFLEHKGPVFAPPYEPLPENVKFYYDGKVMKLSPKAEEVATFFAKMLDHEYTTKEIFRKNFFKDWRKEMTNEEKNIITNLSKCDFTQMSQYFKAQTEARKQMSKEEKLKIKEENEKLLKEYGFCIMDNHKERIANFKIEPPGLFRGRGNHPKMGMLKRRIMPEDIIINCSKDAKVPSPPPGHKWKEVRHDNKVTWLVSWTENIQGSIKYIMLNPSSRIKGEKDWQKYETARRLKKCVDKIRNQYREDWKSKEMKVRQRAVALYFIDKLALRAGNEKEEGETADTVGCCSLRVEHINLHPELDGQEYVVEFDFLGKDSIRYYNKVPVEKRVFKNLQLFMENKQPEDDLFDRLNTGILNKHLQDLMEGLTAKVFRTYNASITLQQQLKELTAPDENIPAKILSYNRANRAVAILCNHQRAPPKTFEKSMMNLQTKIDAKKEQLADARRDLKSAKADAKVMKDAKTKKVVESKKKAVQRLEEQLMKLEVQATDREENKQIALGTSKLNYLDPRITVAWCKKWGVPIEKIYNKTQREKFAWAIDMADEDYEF

Homo sapiens = organism: Homo sapiens; assay: Selectivity for Cdk4/Cyclin D1 over Cdk2/Cyclin A
[8] = target: Cyclin-dependent kinase 4 (Homo sapiens) (UniProt P11802); assay: Inhibition of Cdk4-mediated phosphorylation of pRB in Calu1 cells at ser 795 residue after 24 hrs by Western blot analysis; assay type: functional, cell-based; details: Calu-1
[9] = target: Cyclin-dependent kinase 4 (Homo sapiens) (UniProt P11802); assay: Inhibition of Cdk4-mediated phosphorylation of pRB in Calu1 cells at ser 780 residue after 24 hrs by Western blot analysis; assay type: functional, cell-based; details: Calu-1
Calu-1 [10] = assay: Cell cycle arrest in serum-starved Calu1 cells by accumulation at G0/G1 phase after 24 hrs by FACS analysis; assay type: functional, Homo sapiens
Calf thymus DNA [11] = assay: Ability to displace ethidium bromide from DNA at 100 uM; assay type: nucleic-acid assay
[12] = target: Cyclin-dependent kinase 4 (Homo sapiens) (UniProt P11802); assay: Inhibition of Cdk4-mediated phosphorylation of pRB in Calu1 cells at ser 795 residue at 6.2 uM after 24 hrs by Western blot analysis; assay type: functional, cell-based; details: Calu-1
[13] = target: T1, DNA topoisomerase 1 (Homo sapiens); assay: Inhibition of DNA relaxation catalysed by topoisomerase1 at 100 uM; assay type: functional
Calu-1 [14] = assay: Cell cycle arrest in serum-starved Calu1 cells by accumulation at S phase after 24 hrs by FACS analysis; assay type: functional, Homo sapiens
[15] = target: Cyclin-dependent kinase 4 (Homo sapiens) (UniProt P11802); assay: Inhibition of Cdk4-mediated phosphorylation of pRB in Calu1 cells at ser […] residue after 24 hrs by Western blot analysis; assay type: functional, cell-based; details: Calu-1
Calu-1 [16] = assay: Ratio of cell cycle arrest in serum-starved Calu1 cells at G0/G1phase to S phase after 24 hrs by FACS analysis; assay type: functional, Homo sapiens
[17] = target: Cyclin-dependent kinase 4 (Homo sapiens) (UniProt P11802); assay: Inhibition of Cdk4-mediated phosphorylation of pRB in Calu1 cells at ser […] residue at 6.2 uM after 24 hrs by Western blot analysis; assay type: functional, cell-based; details: Calu-1

Sequence of Cyclin-dependent kinase 4/cyclin D1 (P11802 whole entry): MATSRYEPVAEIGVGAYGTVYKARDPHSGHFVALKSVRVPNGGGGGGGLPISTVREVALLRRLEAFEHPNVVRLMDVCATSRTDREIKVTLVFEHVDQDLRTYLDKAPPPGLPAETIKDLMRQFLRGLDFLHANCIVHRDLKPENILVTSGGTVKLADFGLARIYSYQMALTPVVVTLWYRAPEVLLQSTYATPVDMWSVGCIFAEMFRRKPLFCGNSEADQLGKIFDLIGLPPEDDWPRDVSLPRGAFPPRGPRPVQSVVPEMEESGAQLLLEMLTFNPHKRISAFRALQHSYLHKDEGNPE
Sequence of Cyclin-dependent kinase 4/cyclin D1 (P24385 whole entry, further chain): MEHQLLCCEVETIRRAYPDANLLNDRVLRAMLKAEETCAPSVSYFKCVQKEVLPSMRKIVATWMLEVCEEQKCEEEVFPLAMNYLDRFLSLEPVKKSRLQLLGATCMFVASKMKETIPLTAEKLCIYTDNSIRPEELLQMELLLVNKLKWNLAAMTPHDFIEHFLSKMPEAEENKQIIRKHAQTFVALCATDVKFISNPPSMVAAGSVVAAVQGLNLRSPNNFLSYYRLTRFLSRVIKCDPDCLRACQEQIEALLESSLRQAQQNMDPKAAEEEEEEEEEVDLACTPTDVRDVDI
Sequence of Cyclin-dependent kinase 4 (Homo sapiens) (P11802 whole entry): as the sequence (P11802 whole entry) above

Row | SMILES | IC50 [1] | IC50 (PC-3) | IC50 (LS174T) | IC50 (A549) | IC50 [2] | IC50 (Calu-1 [3]) | Activity (Calf thymus DNA [4]) | other results
1 | CN(CCc1c[nH]c2ccccc12)C(=O)c1cccc(Br)c1 | 635 µM | 66 µM | 89 µM | 91 µM | 74 µM | 144 µM | inactive | 
2 | Cc1c2oc3c(C)ccc(C(=O)N[C@@H]4C(=O)N[C@H](C(C)C)C(=O)N5CCC[C@H]5C(=O)N(C)CC(=O)N(C)[C@@H](C(C)C)C(=O)O[C@@H]4C)c3nc-2c(C(=O)N[C@@H]2C(=O)N[C@H](C(C)C)C(=O)N3CCC[C@H]3C(=O)N(C)CC(=O)N(C)[C@@H](C(C)C)C(=O)O[C@@H]2C)c(N)c1=O [DACTINOMYCIN] (I: T[dV]P[Sar][NMeV] / II: T[dV]P[Sar][NMeV]; ester I:1-I:C, II:1-II:C; linker I:N-II:N via Actinocin(1to9)) |  |  |  |  |  |  |  | IC50 (Calf thymus DNA [4]): 35 µM
3 | CN(CCc1c[nH]c2ccccc12)C(=O)c1ccc(Cl)cc1 | 731 µM | 47 µM | 42 µM | 27 µM | 38 µM | 78 µM | inactive | 
4 | Cc1ccc(C(=O)N(C)CCc2c[nH]c3ccccc23)cc1 | 790 µM | 55 µM | 82 µM | 92 µM | 63 µM | 103 µM | inactive | 
5 | Cc1cccc(C(=O)N(C)CCc2c[nH]c3ccccc23)c1 | 830 µM | 81 µM | 88 µM | 96 µM | 78 µM | 136 µM | inactive | 
6 | CN(CCc1c[nH]c2ccccc12)C(=O)c1cccc(F)c1 | 765 µM | 98 µM | 97 µM | 106 µM | 88 µM | 136 µM | inactive | 
7 | CN(CCc1c[nH]c2ccccc12)C(=O)c1ccccc1F | 1230 µM | 108 µM | 110 µM | 103 µM | 103 µM | 145 µM | inactive | 
8 | CN(CCc1c[nH]c2ccccc12)C(=O)c1cccc(Cl)c1 | 1120 µM | 94 µM | 118 µM | 95 µM | 109 µM | 123 µM | inactive | 
9 | CN(CCc1c[nH]c2ccccc12)C(=O)c1ccc(Br)cc1 | 580 µM | 36 µM | 52 µM | 55 µM | 37 µM | 64 µM | inactive | 
10 | CN(CCc1c[nH]c2ccccc12)C(=O)c1ccc(-c2ccccc2)cc1 | 521 µM | 6.2 µM | 3.5 µM | 3.5 µM | 6.2 µM | 11.5 µM | inactive | Activity [5]: Active; Activity (Calu-1 [6]): 30%; Activity [7]: inactive; Selectivity ratio (Homo sapiens): 100; Activity [8]: Active; Activity [9]: Active; Activity (Calu-1 [10]): 64%; Activity (Calf thymus DNA [11]): < 5%; Activity [12]: Active; Activity [13]: inactive; Activity (Calu-1 [14]): 4%; Activity [15]: Active; Ratio (Calu-1 [16]): 16; Activity [17]: Active
11 | CN(CCc1c[nH]c2ccccc12)C(=O)c1ccccc1Br | 584 µM | 59 µM | 76 µM | 95 µM | 95 µM | 122 µM | inactive | 
12 | COc1ccccc1C(=O)N(C)CCc1c[nH]c2ccccc12 | 849 µM | 89 µM | 106 µM | 103 µM | 79 µM | 146 µM | inactive | 
13 | CN(CCc1c[nH]c2ccccc12)C(=O)c1ccccc1Cl | 784 µM | 92 µM | 99 µM | 96 µM | 46 µM | 147 µM | inactive | 
14 | COc1cccc(C(=O)N(C)CCc2c[nH]c3ccccc23)c1 | 938 µM | 85 µM | 109 µM | 95 µM | 81 µM | 139 µM | inactive | 
15 | Cc1ccccc1C(=O)N(C)CCc1c[nH]c2ccccc12 | 1130 µM | 92 µM | 105 µM | 110 µM | 113 µM | 141 µM | inactive | 
16 | CN(CCc1c[nH]c2ccccc12)C(=O)c1ccc(C(C)(C)C)cc1 | 658 µM | 15 µM | 18 µM | 12 µM | 49 µM | 52 µM | inactive | 
17 | CN(CCc1c[nH]c2ccccc12)C(=O)c1ccc(F)cc1 | 850 µM | 94 µM | 87 µM | 102 µM | 59 µM | 141 µM | inactive | 
18 | CN(CCc1c[nH]c2ccccc12)C(=O)c1ccccc1 | 1520 µM | 86 µM | 83 µM | 95 µM | 88 µM | 104 µM | inactive | 
